The structures appear in SMILES notation. pEC50: −log10 of the molar value.

The pEC50 is −log10 of the EC50, conventionally taken in molar units. A lower pEC50 goes with a large EC50.

The target in one test is T1, human FXR (Homo sapiens, UniProt Q96RI1).
T1 construct: expressed in transfected cells; host or cells: HEK293 cells stably carrying a 5xGal4-response-element firefly luciferase reporter, transiently transfected with pcDNA3.1-Gal4-FXR
T1 sequence (Q96RI1 262-486 limits assumed): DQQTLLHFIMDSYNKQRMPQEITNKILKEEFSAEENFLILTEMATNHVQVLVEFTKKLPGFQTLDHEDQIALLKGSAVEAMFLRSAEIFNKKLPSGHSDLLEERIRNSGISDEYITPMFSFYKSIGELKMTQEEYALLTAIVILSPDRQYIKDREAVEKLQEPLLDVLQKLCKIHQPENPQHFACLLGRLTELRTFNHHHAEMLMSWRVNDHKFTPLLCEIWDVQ
Put plainly: transient human FXR/Gal4-luciferase reporter assay. Particulars: Gal4-hFXR fusion construct, luciferase reporter HEK293 cells; response relative to 8 μM GW-4064. It counts as cell-based. How it is done: The exemplified compounds of the present invention were tested in the transient human FXR/Gal4-luciferase reporter assay, and assay results were reported in Table 1 and Examples 1 to 3 together with other analytical data.
A Gal4-hFXR fusion construct reporter system was used as the primary assay to characterize compound activity. A construct including 5 copies of the Gal4 promoter response element upstream of a firefly luciferase reporter cDNA was stably expressed in HEK293 cells. This reporter cell line was maintained in Dulbecco's Modified Eagle's medium (DMEM; Gibco) supplemented with 1% penicillin-streptomycin (P/S) solution, 500 μg/mL Zeocin and 10% charcoal/dextran-treated fetal bovine serum (cs-FBS) at 37° C. in a humidified 5% CO2 atmosphere. Another plasmid was constructed in which the human cytomegalovirus promoter in the pcDNA3.1 vector directs the expression of the cDNA encoding a fusion protein comprised of the DNA binding domain from the Gal4 transcription factor fused to the ligand binding domain from human FXR.
The day prior to transfection, the reporter cells in culture are detached from the plate with trypsin and plated into a T75 flask at a sufficient density to achieve approximately 90% confluence the next morning. The transfection reagents are prepared by separately diluting 25 μg of the pcDNA3.1-Gal4-FXR plasmid into 1.87 mL of Opti-MEM (Thermo-Fisher), and 40 μL of Lipofectamine 2000 (Thermo-Fisher) into 1.87 mL of Opti-MEM, and then adding the diluted DNA solution into the diluted Lipofectamine 2000 solution and incubating at room temperature for 15-20 minutes. The mixture is further diluted with 10 mL of a solution comprised of DMEM, 10% cs-FBS, and 1% P/S immediately prior to transferring to the cells. The maintenance culture media is aspirated from the cells and the final transfection mixture is added before the cells are incubated overnight at 37° C. in a humidified 5% CO2 atmosphere. This protocol can be scaled up, and the transiently transfected cells can be cryopreserved in an assay-ready format.
For compound testing, 100 nL of the compounds (serial dilutions in DMSO) are dispensed with an Echo acoustic dispenser (Labcyte) into the wells of a Corning/Costar clear bottom 384-well white plate. The transfected cells are harvested, counted, and diluted such that 10-25,000 cells in 25 μL are plated into each well of the 384-well compound assay plate. The compound-treated cells are incubated overnight at 37° C. in a humidified 5% CO2 atmosphere. The next morning 25 μL of Steady-Glo (Promega) are added to each well of the plate, the mixture is incubated for 15 min. with shaking, and luminescence is measured on an Envision (Perkin Elmer) plate reader. Background counts from cells treated with DMSO alone are subtracted from all raw counts, and the corrected values are converted to a percentage of the control response attained with 8 μM GW-4064.
(A reporter such as luciferase makes a cellular process visible.)
`O=C(O)c1cc(OC2CCC2)c2cc(N3CC4(CC(/C=C/c5c(-c6cccnc6C(F)(F)F)noc5C5CC5)C4)C3)ccc2n1` [Example 3, (E)-4-Cyclobutoxy-6-(6-(2-(5-cyclopropyl-3-(2-(trifluoromethyl)pyridin-3-yl)isoxazol-4-yl)vinyl)-2-azaspiro[3.3]heptan-2-yl)quinoline-2-carboxylic acid]: the pEC50 was 7.07.

The same test, now with this note: Gal4-hFXR fusion construct, luciferase reporter HEK293 cells; response relative to 8 μM GW-4064; unit inferred.
`O=C(O)c1cc(OC2CCC2)c2cc(N3CC4(CC(/C=C/c5c(-c6c(Cl)cncc6Cl)noc5C5CC5)C4)C3)ccc2n1` [Example 17] gave a pEC50 of 7.07.

In turn, `COc1cc(C(=O)O)nc2ccc(N3CC4(CC(/C=C/c5c(-c6ccccc6C(F)(F)F)noc5C5CC5)C4)C3)cc12` [Example 16] gave a pEC50 of 6.98.

`O=C(O)c1cc(C(F)(F)F)c2cc(N3CC4(CC(/C=C/c5c(-c6c(Cl)cncc6Cl)noc5C5CC5)C4)C3)ccc2n1` [Example 7] showed a pEC50 of 6.28.

Molecule `O=C(O)c1ncc(OCC2CC3(CC(/C=C/c4c(-c5c(Cl)cncc5Cl)noc4C4CC4)C3)C2)cc1OC1CCC1` (stereo not shown) [Example 58] had a negative-log EC50 (pEC50) of 7.66.

`COc1cc(C(=O)O)nc2ccc(N3CC4(CC(/C=C/c5c(-c6c(Cl)cncc6Cl)noc5C5CC5)C4)C3)nc12` [Example 28] gave a negative logarithm of the EC50 (pEC50) of 5.79.

In turn, `O=C(O)c1cc2ccc(OCC3CC4(CC(/C=C/c5c(-c6c(Cl)cncc6Cl)noc5C5CC5)C4)C3)cc2nn1` (stereo not shown) [Example 57] showed a negative logarithm of the EC50 (pEC50) of 7.12.

Turning to `O=C(O)c1ncc(OCC2CC3(CC(/C=C/c4c(-c5ccccc5C(F)(F)F)noc4C4CC4)C3)C2)cc1OC1CC1` (stereo not shown) [Example 61], the pEC50 was 7.80.

With `NC(=O)Cc1ccc(OCC2CC3(CC(/C=C/c4c(-c5ccccc5C(F)(F)F)noc4C4CC4)C3)C2)cc1` (stereo not shown) [Example 49], the pEC50 was 6.75.

The molecule `O=C(O)c1cc(C(F)(F)F)c2cc(OCC3CC4(CC(/C=C/c5c(-c6c(Cl)cncc6Cl)noc5C5CC5)C4)C3)ccc2n1` (stereo not shown) [Example 46] gave a negative-log EC50 (pEC50) of 7.66.

The values are drawn from US11286252B2, “Alkene spirocyclic compounds as farnesoid X receptor modulators” (BRISTOL-MYERS SQUIBB COMPANY, priority 2017, dated 2022).
